Assays:
[1] = molecular target: PD-1/PD-L1 (Homo sapiens (Human), UniProt Q9NZQ7); test: PD-1/PD-L1 biochemical protein-protein interaction assay (ALPHA); type: binding; settings: 0.3 nM His tagged PD-L1, 2.5 nM biotinylated Fc-PD-1, Table 3B, read-out: IC50 PD-L1-PD1
[2] = molecular target: PD-L1 (Homo sapiens (Human), UniProt Q9NZQ7); test: PD-L1/PD-L1 dimerization biochemical protein-protein interaction assay (ALPHA); type: binding; settings: 0.5 nM His tagged PD-L1 and 0.5 nM FLAG tagged PD-L1, Table 4B, read-out: AC50 PDL1 Dimer 1 nM
Sequence of PD-L1 (Q9NZQ7 19-238): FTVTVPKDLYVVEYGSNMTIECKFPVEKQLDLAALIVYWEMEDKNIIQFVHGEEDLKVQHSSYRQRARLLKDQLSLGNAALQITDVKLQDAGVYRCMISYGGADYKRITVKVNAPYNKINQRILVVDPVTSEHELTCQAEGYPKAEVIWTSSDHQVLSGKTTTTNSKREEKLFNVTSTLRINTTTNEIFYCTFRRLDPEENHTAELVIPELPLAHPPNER
Sequence of PD-L1 (Q9NZQ7 19-238): as above

Sequence of PD-1/PD-L1 (Q9NZQ7 19-238): as above

| SMILES | IC50 [1] | AC50 [2] |
| --- | --- | --- |
| CNC(=O)C1CCN(Cc2cc(Cl)c(O[C@H]3CCc4c(-c5cccc(-c6cnc(CNC[C@@H]7CCC(=O)N7)c(OC)n6)c5Cl)cccc43)nc2OC)C1 (some centres unmarked) [B-28] | 0.088 nM | 26.9 nM |
| COc1nc(-c2cccc(-c3cccc4c3CC[C@@H]4Oc3nc(OCc4cc(F)cc(C#N)c4)c(CN4CC5(C(=O)O)CCC4CC5)cc3Cl)c2Cl)ccc1CNC[C@@H]1CCC(=O)N1 [B-30] | 0.158 nM | 58.3 nM |
| COc1nc(-c2cccc(-c3cccc4c3CC[C@@H]4Oc3nc(OCc4cc(Cl)cc(C#N)c4)c(CN4CC5(C(=O)O)CCC4CC5)cc3Cl)c2Cl)ccc1CNC[C@@H]1CCC(=O)N1 [B-31] | 0.085 nM | 32.3 nM |
| COc1nc(-c2cccc(-c3cccc4c3CC[C@@H]4Oc3nc(OCc4cncc(Cl)c4)c(CNC4(C(=O)O)CC4)cc3Cl)c2Cl)ccc1CNC[C@@H]1CCC(=O)N1 [B-32] | 0.095 nM | 12.9 nM |
| COc1nc(O[C@H]2CCc3c(-c4cccc(-c5cnc(CNC[C@@H]6CCC(=O)N6)c(OC)n5)c4Cl)cccc32)c(Cl)cc1CNC1CC(NC(C)=O)C1 (some centres unmarked) [B-34] | 0.111 nM | 22.3 nM |
| COc1nc(-c2cccc(-c3cccc4c3CC[C@@H]4Oc3nc(OC)c(CN4CC[C@@H](C(=O)O)C4)nc3Br)c2Cl)cnc1CNC[C@@H]1CCC(=O)N1 [B-37] | 0.064 nM | 28 nM |
| COc1nc(-c2cccc(-c3cccc4c3CC[C@@H]4Oc3nc(OC)c(CNC[C@@H]4CCC(=O)N4)nc3Br)c2Cl)cnc1CNC[C@@H]1CCC(=O)N1 [B-38] | 0.095 nM | 46.5 nM |
| COc1cc(-c2cccc(-c3cccc4c3CC[C@@H]4Oc3nc(OC)c(CN4CC5(C(=O)O)CCC4CC5)cc3Cl)c2Cl)ccc1CNC[C@@H]1CCC(=O)N1 [B-39] | 0.064 nM | 3.8 nM |
| COc1cc(-c2cccc(-c3cccc4c3CC[C@@H]4Oc3nc(OC)c(CN4CC[C@@H](C(=O)O)C4)cc3Cl)c2Cl)ccc1CNC[C@@H]1CCC(=O)N1 [B-41] | 0.064 nM | 3.59 nM |
| COc1cc(-c2cccc(-c3cccc4c3CC[C@@H]4Oc3nc(OC)c(CN4CC(C(=O)O)C4)cc3Cl)c2Cl)ccc1CNC[C@@H]1CCC(=O)N1 [B-42] | 0.064 nM | 12.5 nM |
| COc1nc(O[C@H]2CCc3c(-c4cccc(-c5cnc(CNC[C@@H]6CCC(=O)N6)c(OC)n5)c4Cl)cccc32)c(Cl)cc1CN1CC(C(=O)O)C1 [B-43] | 0.064 nM | 44.3 nM |
| COc1nc(-c2cccc(-c3cccc4c3CC[C@@H]4Oc3nc(OC)c(CN4CC(C(=O)O)C4)nc3Cl)c2Cl)cnc1CNC[C@@H]1CCC(=O)N1 [B-44] | 0.064 nM | 17.9 nM |
| COc1nc(-c2cccc(-c3cccc4c3CC[C@@H]4Oc3nc(OC)c(CN4CC5(C(=O)O)CCC4CC5)nc3Cl)c2Cl)cnc1CNC[C@@H]1CCC(=O)N1 [B-45] | 0.064 nM | 20.2 nM |
| COc1nc(-c2cccc(-c3cccc4c3CC[C@@H]4Oc3nc(OCc4cncc(Cl)c4)c(CN4CC5(C(=O)O)CCC4CC5)cc3Cl)c2Cl)ccc1CNC[C@@H]1CCC(=O)N1 [B-48] | 0.064 nM | 7.12 nM |
| COc1nc(-c2cccc(-c3cccc4c3CC[C@@H]4Oc3nc(OCc4cncc(Cl)c4)c(CN4CC[C@H](C(=O)O)C4)cc3Cl)c2Cl)ccc1CNC[C@@H]1CCC(=O)N1 [B-49] | 0.064 nM | 19.1 nM |
| COc1nc(-c2cccc(-c3cccc4c3CC[C@@H]4Oc3nc(OC)c(CN4CC5(C(=O)O)CCC4CC5)cc3Cl)c2Cl)ccc1CN[C@H]1CCCC[C@H]1O [B-50] | 0.064 nM | 26.1 nM |
| COc1nc(-c2cccc(-c3cccc4c3CC[C@@H]4Oc3nc(OC)c(CN4CC5(C(=O)O)CCC4CC5)cc3Cl)c2Cl)ccc1CN1CC[C@@H](O)C1 [B-51] | 0.064 nM | 27.5 nM |

| SMILES | IC50 [1] | AC50 [2] |
| --- | --- | --- |
| COc1nc(-c2cccc(-c3cccc4c3CC[C@@H]4Oc3nc(OC)c(CN4CC5(C(=O)O)CCC4CC5)cc3Cl)c2Cl)ccc1CN[C@@H]1CCC[C@@H]1O [B-52] | 0.095 nM | 46.4 nM |
| COc1nc(-c2cccc(-c3cccc4c3CC[C@@H]4Oc3nc(OCc4ccc(-n5cccn5)nc4)c(CN4CC5(C(=O)O)CCC4CC5)cc3Cl)c2Cl)ccc1CNC[C@@H]1CCC(=O)N1 [B-56] | 0.189 nM | 41 nM |
| COc1nc(O[C@H]2CCc3c(-c4cccc(-c5cc(C)c(CN6CC(C)(O)C6)c(OC)n5)c4Cl)cccc32)c(Cl)cc1CN1CC2(C(=O)O)CCC1CC2 [B-57] | 0.08 nM | 66.5 nM |
| COc1nc(O[C@H]2CCc3c(-c4cccc(-c5cc(C)c(CN6CC(C)(O)C6)c(OC)n5)c4Cl)cccc32)c(Cl)cc1CN1CC[C@@H](C(=O)O)C1 [B-58] | 0.064 nM | 49.7 nM |
| COc1nc(O[C@H]2CCc3c(-c4cccc(-c5cc(C)c(CN6CC(C)(O)C6)c(OC)n5)c4Cl)cccc32)c(Cl)cc1CN1CC(C(=O)O)C1 [B-59] | 0.113 nM | 107 nM |
| COc1nc(O[C@H]2CCc3c(-c4cccc(-c5cc(C)c(CN6CC(C)(O)C6)c(OC)n5)c4Cl)cccc32)c(Cl)cc1CN1CC[C@H](C(=O)O)C1 [B-60] | 0.064 nM | 55.6 nM |
| COc1nc(-c2cccc(-c3cccc4c3CC[C@@H]4Oc3nc(OC)c(CN4CC5(C(=O)O)CCC4CC5)cc3C(F)(F)F)c2Cl)ccc1CNC[C@@H]1CCC(=O)N1 [B-61] | 0.064 nM | 6.22 nM |
| COc1nc(-c2cccc(-c3cccc4c3CC[C@@H]4Oc3nc(OC)c(CN4CC[C@@H](C(=O)O)C4)cc3C(F)(F)F)c2Cl)ccc1CNC[C@@H]1CCC(=O)N1 [B-62] | 0.064 nM | 9.3 nM |
| COc1nc(-c2cccc(-c3cccc4c3CC[C@@H]4Oc3nc(OC)c(CN4CC(C(=O)O)C4)cc3C(F)(F)F)c2Cl)ccc1CNC[C@@H]1CCC(=O)N1 [B-63] | 0.064 nM | 7.82 nM |
| COc1nc(-c2cccc(-c3cccc4c3CC[C@@H]4Oc3nc(OC)c(CN4CCC(NC(C)=O)C4)cc3Cl)c2Cl)ccc1CNC[C@@H]1CCC(=O)N1 (some centres unmarked) [B-64] | 0.076 nM | 40.5 nM |
| COc1nc(-c2cccc(-c3cccc4c3CC[C@@H]4Oc3nc(OC)c(CN4CC5(C(=O)O)CCC4CC5)cc3Cl)c2C#N)ccc1CNC[C@@H]1CCC(=O)N1 [B-68] | 0.064 nM | 48 nM |
| COc1nc(O[C@H]2CCc3c(-c4cccc(-c5cnc(CNC[C@@H]6CCC(=O)N6)c(OC)n5)c4C#N)cccc32)c(Cl)cc1CN1CC[C@@H](C(=O)O)C1 [B-69] | 0.064 nM | 156 nM |
| COc1nc(-c2cccc(-c3cccc4c3CC[C@@H]4Oc3nc(OC)c(CN4CC(C(=O)O)C5(CCOC5)C4)cc3Cl)c2Cl)ccc1CNC[C@@H]1CCC(=O)N1 (some centres unmarked) [B-70] | 0.064 nM | 31.9 nM |
| COc1nc(-c2cccc(-c3cccc4c3CC[C@@H]4Oc3nc(OC)c(CN4CC(C(=O)O)C5(CCC5)C4)cc3Cl)c2Cl)ccc1CNC[C@@H]1CCC(=O)N1 (some centres unmarked) [B-71] | 0.064 nM | 35.7 nM |
| COc1nc(-c2cccc(-c3cccc4c3CC[C@@H]4Oc3nc(OC)c(CN4CC(C(=O)O)C5(CC5)C4)cc3Cl)c2Cl)ccc1CNC[C@@H]1CCC(=O)N1 (some centres unmarked) [B-72] | 0.064 nM | 25.8 nM |
| COc1nc(-c2cccc(-c3cccc4c3CC[C@@H]4Oc3nc(OC)c(CN4CC[C@@H](C(=O)O)C4)cc3Cl)c2C#N)ccc1CNC[C@@H]1CCC(=O)N1 [B-73] | 0.064 nM | 81.7 nM |
| COc1nc(-c2cccc(-c3cccc4c3CC[C@@H]4Oc3nc(OC)c(CN4CC(C(=O)O)C4)cc3Cl)c2C#N)ccc1CNC[C@@H]1CCC(=O)N1 [B-74] | 0.064 nM | 94.1 nM |

Source: patent US10774071B2, “PD-1/PD-L1 inhibitors” (Gilead Sciences, Inc., priority 2018, dated 2020)
